Data reported in ChEMBL document CHEMBL6153141, “Design, Synthesis, and Mechanism Study of Novel BMX Inhibitors Based on the Core of 1,3,5-Triazin-2-Amine for the Treatment of Gastric Carcinoma” (J Med Chem, 2025).
pIC50: −log10 of the molar value. The source made the active and inactive calls. The calls are words filed in the database; no cut-off is given here.

What was measured:
HGC-27 [1] = experiment: Anti-invasive activity in human HGC-27 cells assessed as decrease in invasion ability at 5 to 15 uM incubated for 48 hrs by transwell assay; assay type: functional, cell-based; conditions: dose 5-15 µM
[2] = Toxicity in female BALB/c nude mouse model xenografted with human HGC-27 cells assessed as effect on spleen at 30 mg/kg, ip administered for 21 days by H and E staining based analysis; assay type: organism-based; conditions: in vivo, 504 h, time 21 day
[3] = molecular target: Tyrosine-protein kinase BTK (Homo sapiens, UniProt Q06187); experiment: Inhibition of BTK (unknown origin) in presence of ATP at Km concentration
Tyrosine-protein kinase BTK, sequence (Q06187 whole entry): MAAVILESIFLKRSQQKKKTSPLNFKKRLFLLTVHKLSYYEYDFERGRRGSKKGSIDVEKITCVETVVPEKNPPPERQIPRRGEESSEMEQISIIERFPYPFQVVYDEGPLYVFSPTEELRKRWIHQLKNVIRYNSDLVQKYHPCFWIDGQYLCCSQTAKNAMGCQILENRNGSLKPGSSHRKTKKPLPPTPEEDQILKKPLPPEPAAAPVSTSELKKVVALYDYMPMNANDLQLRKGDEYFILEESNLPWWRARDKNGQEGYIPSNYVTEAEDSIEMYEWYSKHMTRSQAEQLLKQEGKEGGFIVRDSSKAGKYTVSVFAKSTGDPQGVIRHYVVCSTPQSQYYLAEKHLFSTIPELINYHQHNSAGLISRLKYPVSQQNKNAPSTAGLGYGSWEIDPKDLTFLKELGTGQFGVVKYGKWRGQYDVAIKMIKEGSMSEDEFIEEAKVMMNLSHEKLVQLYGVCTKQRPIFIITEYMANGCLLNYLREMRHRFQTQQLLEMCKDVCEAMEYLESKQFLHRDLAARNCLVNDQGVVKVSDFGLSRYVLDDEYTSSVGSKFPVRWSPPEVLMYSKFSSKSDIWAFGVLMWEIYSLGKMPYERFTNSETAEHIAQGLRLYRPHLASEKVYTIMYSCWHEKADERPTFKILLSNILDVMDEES

HGC-27 [4] = experiment: Induction of apoptosis in LC3B knockout human HGC-27 cells assessed as increase in cleaved caspase 9 level at 15 uM by Western blot analysis; assay type: functional, cell-based
MGC-803 [5] = experiment: Induction of autophagy in human MGC-803 cells assessed as decrease in p62 protein expression incubated for 48 hrs by Western blot analysis; assay type: functional, cell-based; conditions: dose 10-20 µM
HGC-27 [6] = experiment: Induction of apoptosis in LC3B knockout human HGC-27 cells assessed as increase in cleaved PARP level at 15 uM by Western blot analysis; assay type: functional, cell-based
MGC-803 [7] = experiment: cells; conditions: Homo sapiens, MGC-803, 48 h
Description: Antiproliferative activity against human MGC-803 cells assessed as inhibition of cell viability incubated for 48 hrs by MTT assay

[8] = Metabolic stability in rat liver microsomes assessed as intrinsic clearance at 100 uM measured upto 60 mins in presence of NADPH by LC-MS/MS analysis; assay type: ADME, Microsome; conditions: read-out: CLH
[9] = molecular target: Cytoplasmic tyrosine-protein kinase BMX (Homo sapiens) (UniProt P51813); experiment: Irreversible inhibition of BMX in human HGC-27 cells at 15 uM preincubated for 48 hrs followed by compound washout and measured within 6 hrs by Western blot analysis; assay type: cell-based
Cytoplasmic tyrosine-protein kinase BMX (Homo sapiens), sequence (P51813 whole entry): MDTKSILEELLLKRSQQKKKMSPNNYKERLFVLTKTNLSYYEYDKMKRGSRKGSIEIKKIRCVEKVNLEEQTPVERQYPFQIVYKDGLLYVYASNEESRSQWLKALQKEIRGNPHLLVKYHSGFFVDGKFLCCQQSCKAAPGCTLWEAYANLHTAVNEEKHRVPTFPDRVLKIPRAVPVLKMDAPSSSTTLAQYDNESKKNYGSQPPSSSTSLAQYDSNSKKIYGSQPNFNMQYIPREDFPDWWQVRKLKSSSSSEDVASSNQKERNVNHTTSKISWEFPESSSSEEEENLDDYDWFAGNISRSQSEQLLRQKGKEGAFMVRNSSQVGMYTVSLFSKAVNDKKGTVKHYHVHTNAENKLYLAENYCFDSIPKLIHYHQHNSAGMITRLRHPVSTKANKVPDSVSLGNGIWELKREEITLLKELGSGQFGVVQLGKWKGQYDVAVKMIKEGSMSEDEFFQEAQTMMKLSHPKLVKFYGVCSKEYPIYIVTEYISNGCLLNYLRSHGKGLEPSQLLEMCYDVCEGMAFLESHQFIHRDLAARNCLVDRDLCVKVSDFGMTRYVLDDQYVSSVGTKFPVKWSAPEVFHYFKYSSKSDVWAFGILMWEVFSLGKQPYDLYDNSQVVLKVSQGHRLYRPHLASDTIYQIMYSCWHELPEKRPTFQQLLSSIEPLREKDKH

## C=CS(=O)(=O)N1CCC[C@@H](Nc2nc(N)nc(Nc3cccc(Oc4ccccc4)c3)n2)C1
HGC-27 [1]
  Activity: Active
[2]
  Activity: Non-toxic
[3]
  pIC50: 6.73
HGC-27 [4]
  Activity: Active
MGC-803 [5]
  Activity: Dose-dependent-effect
HGC-27 [6]
  Activity: Active
MGC-803 [7]
  pIC50: 4.82
[8]
  microsomal CLint at 100 µM: 304 µL/min/mg
[9]
  inhibition: Active
